In patent EP3544951B1, “SUBSTITUTED HEXARIC ACID DERIVATIVES AND USES THEREOF” (Plant Advanced Technologies Pat, priority 2016, dated 2018):

Experiments:
[1] = test system: neurones corticaux primaires de rat; assay: Survival of primary cortical neurons intoxicated with Aβ 1-42 peptide (MAP-2 staining); type: cell-based; conditions: pre-incubated 1 h before Aβ 1-42 20 µM
From the text: (§1) Le but de cette étude est d'évaluer les effets de l'acide léontopodique B1 sur des neurones corticaux primaires de rat, intoxiqués par le peptide Aβ selon le modèle in vitro de la maladie d'Alzheimer décrit dans Callizot et al., 2013 (Callizot N. et al., Operational dissection of β-amyloid cytopathic effects on cultured neurons. J Neurosci Res. 2013, 91: 706-16). La survie des neurones et des astrocytes ainsi que l'intégrité du réseau de neurites sont évaluées.
(§2) Des neurones corticaux de rat sont cultivés comme décrit dans Singer et al., 1999 (Singer C. et al., Mitogen-activated protein kinase pathway mediates estrogen neuroprotection after glutamate toxicity in primary cortical neurons. J Neurosci. 1999, 19: 2455-2463) et Callizot et al. (2013).
(§3) En résumé, des rats femelles gravides sont tuées par dislocation cervicale après 15 jours de gestation. Les fœtus sont collectés et immédiatement placés dans un milieu glacé L15 Leibovitz (Pan Biotech, Batch: 8810315) additionné de 2% pénicilline (10,000 U/mL) et d'une solution de streptomycine (10 mg/mL) (PS; Pan Biotech, batch: 1451013) et 1% de albumine de sérum de bovin (BSA; Pan Biotech, batch: K180713). Le cortex est traité pendant 20 min à 37°C avec une solution de trypsine- EDTA (Pan Biotech, Batch: 3330914) à une concentration finale de 0,05% trypsine et 0,02% EDTA. […]

[2] = test system: réseau de neurites de neurones corticaux primaires; assay: Neurite network of primary cortical neurons intoxicated with Aβ 1-42 peptide (MAP-2 staining); type: cell-based, rat; conditions: two lowest concentrations 10 nM, 100 nM; pre-incubated 1 h before Aβ 1-42 20 µM, 24 h (Figure 2)
From the text: as §1, §2, §3

astrocytes = assay: Survival of astrocytes in primary cortical neuron culture intoxicated with Aβ 1-42 peptide (GFAP staining); type: cell-based, rat; conditions: Aβ 1-42 20 µM, 24 h (Figure 3)
From the text: as §1, §2, §3

[3] = test system: astrocytes sains (non traités par le peptide Aβ 1-42); assay: Proliferation of pure healthy astrocytes (MTT test, CellTiter 96 Aqueous One Solution); type: cell-based, rat (Wistar); conditions: 4 days incubation, no Aβ 1-42 (Figure 4)
Method: En résumé, le cerveau entier d'un embryon âgé de 15 jours de rat (Wistar) est prélevé. Le cerveau entier est dissocié par trypsinisation. Les cellules sont suspendues dans un milieu de culture du milieu DMEM (Dulbecco's modified Eagle's medium) complémenté avec 2% de pénicilline (10,000 U/mL) et d'une solution de streptomycine (10 mg/mL), et 10% de sérum de veau fœtal (FCS). Les cellules sont ensemencées à une densité de 267 000 cellules par cm^2 dans un flacon de culture. Au stade de la confluence cellulaire, le flacon est secoué pendant 3 heures. Le surnageant de la culture cellulaire est enlevé, les cellules sont traitées par une solution de trypsine- EDTA (Pan Biotech) à une concentration finale de 0,05% trypsine et de 0,02% EDTA. Ensuite les cellules sont congelées afin de constituer une lignée cellulaire d'astrocytes.
Les astrocytes (au stade : P4) sont ensemencées à une densité de 4 000 par puits d'une plaque de 96 puits avec de l'acide léontopodique B1 (dissous à différentes concentrations : 100 nM, 1 µM, 10 µM et 50 µM dans le milieu de culture) et sont cultivées à 37°C dans un incubateur contenant 95% d'air et 5% de CO2. Le milieu est changé tous les jours. Les astrocytes sont cultivés pendant 4 jours en présence d'acide léontopodique B1 avant de mesurer son effet sur la prolifération des astrocytes. […]

O=C(/C=C/c1ccc(O)c(O)c1)OC(C(=O)O)C(OC(=O)/C=C/c1ccc(O)c(O)c1)C(OC(=O)/C=C/c1ccc(O)c(O)c1)C(O)C(=O)O (stereo not shown) [acide léontopodique B1, acide 3,4,5-tricaféoylhexarique]
effet sur la survie des neurones ([1]; 10 nM, 100 nM, 1 µM, 10 µM, 24 h, protective effect follows a bell-shaped curve (Figure 1)): effet significatif et important
mort neuronale ([1]; 100 nM and 1 µM, 24 h (Figure 1)): aucune mort neuronale n'a été observée
effet sur le réseau de neurites [2]: effet significatif et important
effet sur la survie des astrocytes (astrocytes; all concentrations (10 nM to 10 µM)): effet protecteur
mort cellulaire (astrocytes) (astrocytes; three highest concentrations 100 nM, 1 µM, 10 µM): Aucune mort cellulaire n'a été observée
effet sur la prolifération des astrocytes ([3]; 100 nM up to 50 µM): aucun effet significatif
concentration cellulaire ([3]; highest concentration 50 µM): légère mais non significative diminution
